Assay [1] concerns thromboxane synthesis. In words: Thromboxane synthesis in clotting blood (serum TxB2 by radioimmunoassay). In kind it is cell-based. The following applies: human blood clotted 60 min at 37° C. On the procedure: Test compounds were added in a series of concentrations ranging from 10^−7 M to 10^−3 M to samples of blood from healthy human subjects, who had not taken cyclooxygenase inhibitors (acetylsalicylic acid, non-steroidal anti-inflammatory agents) for at least two weeks. The blood samples were allowed to clot for 60 min in a bath at 37° C., and then centrifuged at 2500×g for 10 min. The serum was separated and kept frozen at −20° C. for the determination of TxB2 by radio immunoassay. TxB2 is the stable metabolite into which thromboxane A2 is rapidly converted.

For assay [2], the system named is platelet aggregation in platelet-rich plasma (PRP). In words: Platelet aggregation in human platelet-rich plasma (aggregometer, light transmittance). In kind it is cell-based. The following applies: for ability to counteract platelet aggregation by arachidonic acid: aggregation induced by arachidonic acid, human PRP. Here is the method:
Platelet aggregation experiments were performed on platelet-rich plasma (PRP) prepared from blood of healthy human subjects, who had not taken cyclooxygenase inhibitors (acetylsalicylic acid, non-steroidal anti-inflammatory agents) for at least two weeks. Blood was collected in test tubes containing a 3.2% sodium citrate solution ( 1/10 of blood volume) and immediately centrifuged at 150×g for 15 minutes. Samples of PRP were further centrifuged at 12,000×g in order to obtain platelet-poor plasma (PPP), used for calibration of light transmittance of the double-channel aggregometer, fixing the transmittance of PRP as 10% and that of PPP as 90%. Platelet aggregation in PRP of each subject was tested measuring the percent increase in transmittance under the addition of increasing amounts of sodium arachidonate, in concentrations in the range from 300 to 900 μM, or of collagen, in concentrations in the range from 0.5 to 2.5 μg/ml, or of U-46619, in concentrations in the range from 0.2 to 1.6 μM. (U-46619, i.e., 9,11-dideoxy-11α, 9α-epoxymethano-prostaglandin F2α is an active synthetic analogue of thromboxane A2 and it is chemically stable, at difference from the natural compound; it is therefore used as a substitute in pharmacological experiments). In this way the threshold concentration, i.e., the concentration inducing a submaximal irreversible aggregation was assessed in each subject with the three agents.
PRP samples of subjects not responding to the maximal concentrations were discarded.

The test system of assay [3] is rabbit aortae. In words: Vascular relaxation of contracted aortic rings in vitro. The following applies: at a concentration of 10^−4 M; contraction induced with norepinephrine (10^−6 M). On the procedure: The ability to induce vascular relaxation by acting as a donor of nitric oxide was tested in vitro on rabbit aortae. Rings of aortae were suspended in a Krebs-Henseleit solution at 37° C., submitted to a 1 g tension and connected to a force transducer.

The subject of assay [4] is transcellular synthesis of prostacyclin. In words: Transcellular prostacyclin synthesis: human PRP layered on acetylsalicylic acid-pretreated cultured bovine endothelial cells (6-keto-prostaglandin F1α by radioimmunoassay). In kind it is cell-based. Here is the method: The effects on the transcellular synthesis of prostacyclin from endoperoxides generated in platelets were assessed by layering platelet rich plasma (PRP), obtained from healthy human subjects as described above, on cultured bovine endothelial cells (5×10^5 cells/well). The endothelial cells were pretreated with acetylsalicylic acid (10^−4 M) in order to inhibit the direct synthesis of endoperoxides, and washed twice with Dulbecco's phosphate buffered saline. Then to individual samples of endothelial cells there were added at 37° C. while shaking on an oscillating platform, 0.5 ml of PRP samples pretreated with the test compounds in various concentrations, ranging from […] to 10^−3 M. Collagen (0.5 μg/ml) was then added to each sample. After 2 minutes of contact at 37° C., PRP was removed and centrifuged at 12,000×g, and the supernatant was frozen and kept at −20° C. for the determination of 6-keto-prostaglandin F1α by radioimmunoassay.
6-Keto-prostaglandin F1α is a stable metabolite into which prostacyclin is rapidly converted.

As to `CC(=O)Oc1ccccc1C(=O)O` [acetylsalicylic acid], in assay [1], the “effect on thromboxane synthesis” value is “at difference from acetylsalicylic acid and ozagrel”. Besides, the “ability to counteract platelet aggregation by arachidonic acid” value (shortened to “ability … by arachidonic acid”) in assay [2] is recorded as “shared”.

Turning to `COc1ccc(C(=O)N[C@H]2CC[C@H](O[N+](=O)[O-])CC2)cc1C(=O)NCc1cccnc1` [4-Methoxy-N^1-(4-trans-nitrooxycyclohexyl)-N^3-(3-pyridinylmethyl)-1,3-benzenedicarboxamide], in assay [3], the “relaxation of the aortic ring” value is given as “complete relaxation”. The “level of prostacyclin metabolite relative to the amount produced in basal conditions by endothelial cells not submitted to cyclooxygenase inhibition” value in assay [4] (acetylsalicylic acid-treated endothelial cells, collagen 0.5 μg/ml) is on record as 8-16 times. The “production of the prostacyclin metabolite (6-keto-prostaglandin F1α), level reached” value in assay [4] (acetylsalicylic acid-treated endothelial cells, collagen 0.5 μg/ml, 2 minutes at 37° C.) is listed as 800-1600 μpg/ml. In assay [4] (collagen 0.5 μg/ml, 2 minutes at 37° C., 6-keto-prostaglandin F1α), the “concentration from which production of the prostacyclin metabolite was markedly increased” value was ≥ 10^−6 M.

Turning to `O=C(O)/C=C/c1ccc(Cn2ccnc2)cc1` [ozagrel, (E)-3-[4-(1H-imidazol-1-ylmethyl)-phenyl]-2-propenoic acid], in assay [1], the “effect on thromboxane synthesis” value was “at difference from acetylsalicylic acid and ozagrel”. In assay [2], the “ability … by arachidonic acid” value was “shared”.

With `O=C(O)Cc1ccc(CCNS(=O)(=O)c2ccc(Cl)cc2)cc1` [daltroban, p-[2-(p-chlorobenzenesulfonamido)ethyl]phenylacetic], the “stimulation of the synthesis of prostacyclin” value in assay [4] (PRP on acetylsalicylic acid-treated bovine endothelial cells) is on record as “did not stimulate the synthesis of prostacyclin”. For the same compound, in assay [2] (aggregation induced by U-46619, human PRP), the “ability to counteract the aggregation by U-46619” value is recorded as “shared only by daltroban”. Also, the “ability … by arachidonic acid” value in assay [2] is “shared”.

(Values after US6525078B1, “Compound for the treatment of atherosclerotic-thrombotic pathological conditions” (priority 2002, dated 2003).)
